Assay results: patent US11878965B2, “Inhibitors of peptidylarginine deiminases” (Gilead Sciences, Inc., priority 2020, dated 2024)

Target: human PAD4 (Homo sapiens (Human), UniProt Q9UM07)
Assay: In Vitro PAD4 BAEE Biochemical Assay
Conditions: human PAD4, BAEE substrate; 5 nM PAD4, 2 mM calcium chloride, 3 mM BAEE; geometric mean of multiple experiments
Outline: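 Deimination of BAEE substrate (3 mM) measured as ammonia via o-phthalaldehyde–DTT isoindole fluorescence, 405/535 nm. Tag-free bacterially expressed human PAD4 at 5 nM with 2 mM calcium chloride, pH 7.6 MOPS buffer, 30 min compound preincubation then 2 h reaction, both at 25 °C.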

Chain of human PAD4 (Q9UM07 2-663): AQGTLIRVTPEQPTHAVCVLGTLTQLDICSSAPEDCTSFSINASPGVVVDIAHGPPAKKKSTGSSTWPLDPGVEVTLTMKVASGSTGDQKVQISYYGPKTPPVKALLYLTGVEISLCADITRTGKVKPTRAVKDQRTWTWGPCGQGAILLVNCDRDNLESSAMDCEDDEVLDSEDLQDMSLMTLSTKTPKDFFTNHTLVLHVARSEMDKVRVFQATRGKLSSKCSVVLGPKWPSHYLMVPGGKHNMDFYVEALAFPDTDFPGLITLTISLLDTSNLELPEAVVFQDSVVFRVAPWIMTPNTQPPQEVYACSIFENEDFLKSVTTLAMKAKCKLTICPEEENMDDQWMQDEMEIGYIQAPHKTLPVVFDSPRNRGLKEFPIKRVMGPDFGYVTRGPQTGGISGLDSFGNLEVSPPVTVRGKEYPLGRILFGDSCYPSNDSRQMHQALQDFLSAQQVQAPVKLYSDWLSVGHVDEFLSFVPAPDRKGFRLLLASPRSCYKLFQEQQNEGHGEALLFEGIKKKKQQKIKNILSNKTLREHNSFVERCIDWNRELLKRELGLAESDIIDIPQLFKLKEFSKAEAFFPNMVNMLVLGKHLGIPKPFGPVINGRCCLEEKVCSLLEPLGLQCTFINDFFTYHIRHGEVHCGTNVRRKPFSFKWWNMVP

In the case of `CS(=O)(=O)N(c1ccc2cc(-c3nc4cc(C(=O)N5CCC[C@@H](N)C5)ccc4n3C3CC3)n(CC3CC3)c2n1)C(F)F` [Example 54, (R)-N-(2-(5-(3-aminopiperidine-1-carbonyl)-1-cyclopropyl-1H-benzo[d]imidazol-2-yl)-1-(cyclopropylmethyl)-1H-pyrrolo[2,3-b]pyridin-6-yl)-N-(difluoromethyl) methanesulfonamide], the IC50 is reported as 0.0374 µM.

`CS(=O)(=O)N(c1ccc2cc(-c3nc4cc(C(=O)N5C[C@H]6CC[C@@H]5[C@@H]6N)ccc4n3C3CC3)n(CC3CC3)c2n1)C(F)F` [Example 55, N-(2-(5-((1R,4R,7R)-7-amino-2-azabicyclo[2.2.1]heptane-2-carbonyl)-1-cyclopropyl-1H-benzo[d]imidazol-2-yl)-1-(cyclopropylmethyl)-1H-pyrrolo[2,3-b]pyridin-6-yl)-N-(difluoromethyl) methanesulfonamide] was tested, and the IC50 was 0.0896 µM.

`CS(=O)(=O)N(c1ccc2cc(-c3nc4cc(C(=O)N5[C@@H]6CC[C@@H](N)[C@H]5CC6)ccc4n3C3CC3)n(CC3CC3)c2n1)C(F)F` [Example 56, N-(2-(5-((1R,2R,5R)-2-amino-8-azabicyclo[3.2.1]octane-8-carbonyl)-1-cyclopropyl-1H-benzo[d]imidazol-2-yl)-1-(cyclopropylmethyl)-1H-pyrrolo[2,3-b]pyridin-6-yl)-N-(difluoromethyl) methanesulfonamide] was tested, and the IC50 was 0.0362 µM.

For `Cc1cc2c(cc1C(=O)N1C[C@H]3CC[C@@H]1[C@@H]3N)nc(-c1cc3ccc(N(C(F)F)S(C)(=O)=O)nc3n1CC1CC1)n2C` [Example 57, N-(2-(5-((1R,4R,7R)-7-amino-2-azabicyclo[2.2.1]heptane-2-carbonyl)-1,6-dimethyl-1H-benzo[d]imidazol-2-yl)-1-(cyclopropylmethyl)-1H-pyrrolo[2,3-b]pyridin-6-yl)-N-(difluoromethyl) methanesulfonamide], the IC50 was 11.2 µM.

`Cc1cc2c(cc1C(=O)N1CCC[C@@H](N)C1)nc(-c1cc3ccc(N(C(F)F)S(C)(=O)=O)nc3n1CC1CC1)n2C` [Example 58, (R)-N-(2-(5-(3-aminopiperidine-1-carbonyl)-1,6-dimethyl-1H-benzo[d]imidazol-2-yl)-1-(cyclopropylmethyl)-1H-pyrrolo [2,3-b]pyridin-6-yl)-N-(difluoromethyl) methanesulfonamide] showed an IC50 of 4.34 µM.

`Cc1cc2c(cc1C(=O)N1C[C@H]3CC[C@@H]1[C@@H]3N)nc(-c1cc3ccc(N(C(F)F)S(C)(=O)=O)nc3n1CC1CC1)n2C1CC1` [Example 59, N-(2-(5-((1R,4R,7R)-7-amino-2-azabicyclo[2.2.1]heptane-2-carbonyl)-1-cyclopropyl-6-methyl-1H-benzo[d]imidazol-2-yl)-1-(cyclopropylmethyl)-1H-pyrrolo [2,3-b]pyridin-6-yl)-N-(difluoromethyl) methanesulfonamide] was tested, and the IC50 was 9.41 µM.

In the case of `Cc1cc2c(cc1C(=O)N1CCC[C@@H](N)C1)nc(-c1cc3ccc(N(C(F)F)S(C)(=O)=O)nc3n1CC1CC1)n2C1CC1` [Example 60, (R)-N-(2-(5-(3-aminopiperidine-1-carbonyl)-1-cyclopropyl-6-methyl-1H-benzo[d]imidazol-2-yl)-1-(cyclopropylmethyl)-1H-pyrrolo[2,3-b]pyridin-6-yl)-N-(difluoromethyl) methanesulfonamide], the IC50 is reported as 2.21 µM.

`COc1cc(C(=O)N2C[C@@H]3CC[C@@](N)(C3)C2)cc2nc(-c3cc4ccc(N(C(F)F)S(C)(=O)=O)nc4n3CC3CC3)n(C)c12` [Example 61, N-(2-(5-((1R,5R)-1-amino-3-azabicyclo[3.2.1]octane-3-carbonyl)-7-methoxy-1-methyl-1H-benzo[d]imidazol-2-yl)-1-(cyclopropylmethyl)-1H-pyrrolo[2,3-b]pyridin-6-yl)-N-(difluoromethyl) methanesulfonamide] was tested, and the IC50 was 36.8 µM.

With `COc1cc(C(=O)N2[C@H]3CC[C@@H]2[C@H](N)C3)cc2nc(-c3cc4ccc(N(C(F)F)S(C)(=O)=O)nc4n3CC3CC3)n(C3CC3)c12` [Example 64, N-(2-(5-((1R,2R,4S)-2-amino-7-azabicyclo[2.2.1]heptane-7-carbonyl)-1-cyclopropyl-7-methoxy-1H-benzo[d]imidazol-2-yl)-1-(cyclopropylmethyl)-1H-pyrrolo [2,3-b]pyridin-6-yl)-N-(difluoromethyl) methanesulfonamide] the IC50 was 0.128 µM.

`CS(=O)(=O)N(c1ccc2cc(-c3nc4cc(C(=O)N5[C@H]6CC[C@@H]5[C@H](N)C6)ccc4n3C3CC3)n(CC3CC3)c2n1)C(F)F` [Example 65, N-(2-(5-((1R,2R,4S)-2-amino-7-azabicyclo[2.2.1]heptane-7-carbonyl)-1-cyclopropyl-1H-benzo[d]imidazol-2-yl)-1-(cyclopropylmethyl)-1H-pyrrolo[2,3-b]pyridin-6-yl)-N-(difluoromethyl) methanesulfonamide] was tested, and the IC50 was 0.047 µM.

Compound `COc1cc(C(=O)N2CCC3(CCC3N)C2)cc2nc(-c3cc4ccc(N(C(F)F)S(C)(=O)=O)nc4n3CC3CC3)n(C)c12` (stereo not drawn) [Example 66, N-(2-(5-(1-amino-6-azaspiro[3.4]octane-6-carbonyl)-7-methoxy-1-methyl-1H-benzo[d]imidazol-2-yl)-1-(cyclopropylmethyl)-1H-pyrrolo[2,3-b]pyridin-6-yl)-N-(difluoromethyl) methanesulfonamide] has an IC50 of 21.7 µM.

`COc1cc(C(=O)N2CC3(CCNC3)C2)cc2nc(-c3cc4ccc(N(C(F)F)S(C)(=O)=O)nc4n3CC3CC3)n(C)c12` [Example 67, N-(1-(cyclopropylmethyl)-2-(7-methoxy-1-methyl-5-(2,6-diazaspiro[3.4]octane-2-carbonyl)-1H-benzo[d]imidazol-2-yl)-1H-pyrrolo[2,3-b]pyridin-6-yl)-N-(difluoromethyl) methanesulfonamide] was tested, and the IC50 was 5.08 µM.

Compound `COc1cc(C(=O)N2CCCC3(CCCCN3)C2)cc2nc(-c3cc4ccc(N(C(F)F)S(C)(=O)=O)nc4n3CC3CC3)n(C)c12` (stereo not drawn) [Example 68, N-(1-(cyclopropylmethyl)-2-(7-methoxy-1-methyl-5-(1,8-diazaspiro[5.5]undecane-8-carbonyl)-1H-benzo[d]imidazol-2-yl)-1H-pyrrolo[2,3-b]pyridin-6-yl)-N-(difluoromethyl) methanesulfonamide] has an IC50 of 50 µM.

In the case of `COc1cc(C(=O)N2CC[C@@H]3OCCN[C@@H]3C2)cc2nc(-c3cc4ccc(N(C(F)F)S(C)(=O)=O)nc4n3CC3CC3)n(C3CC3)c12` [Example 69, N-(2-(1-cyclopropyl-7-methoxy-5-((4aR,8aS)-octahydro-2H-pyrido[4,3-b][1,4]oxazine-6-carbonyl)-1H-benzo[d]imidazol-2-yl)-1-(cyclopropylmethyl)-1H-pyrrolo[2,3-b]pyridin-6-yl)-N-(difluoromethyl) methanesulfonamide], the IC50 is reported as 50 µM.

For `COc1cc(C(=O)N[C@H]2CNC[C@@H]2NC(C)=O)cc2nc(-c3cc4ccc(N(C(F)F)S(C)(=O)=O)nc4n3CC3CC3)n(C)c12` [Example 70, N-((3S,4S)-4-acetamidopyrrolidin-3-yl)-2-(1-(cyclopropylmethyl)-6-((N-(difluoromethyl)methyl)sulfonamido)-1H-pyrrolo[2,3-b]pyridin-2-yl)-7-methoxy-1-methyl-1H-benzo[d]imidazole-5-carboxamide], the IC50 was 39.4 µM.

For `COc1cc(C(=O)N[C@@H]2CCNC2)cc2nc(-c3cc4ccc(N(C(F)F)S(C)(=O)=O)nc4n3CC3CC3)n(C)c12` [Example 72, (R)-2-(1-(cyclopropylmethyl)-6-((N-(difluoromethyl)methyl)sulfonamido)-1H-pyrrolo[2,3-b]pyridin-2-yl)-7-methoxy-1-methyl-N-(pyrrolidin-3-yl)-1H-benzo[d] imidazole-5-carboxamide], the IC50 was 20.9 µM.

For `COc1cc(C(=O)N2CC3CCCC3(N)C2)cc2nc(-c3cc4ccc(N(C(F)F)S(C)(=O)=O)nc4n3CC3CC3)n(C)c12` (stereo not drawn) [Example 73, N-(2-(5-(3a-aminooctahydrocyclopenta[c]pyrrole-2-carbonyl)-7-methoxy-1-methyl-1H-benzo[d]imidazol-2-yl)-1-(cyclopropylmethyl)-1H-pyrrolo[2,3-b]pyridin-6-yl)-N-(difluoromethyl) methanesulfonamide], the IC50 was 7.2 µM.

`COc1cc(C(=O)N2CCCC3(CCCN3)C2)cc2nc(-c3cc4ccc(N(C(F)F)S(C)(=O)=O)nc4n3CC3CC3)n(C)c12` (stereo not drawn) [Example 74, N-(1-(cyclopropylmethyl)-2-(7-methoxy-1-methyl-5-(1,7-diazaspiro[4.5]decane-7-carbonyl)-1H-benzo[d]imidazol-2-yl)-1H-pyrrolo[2,3-b]pyridin-6-yl)-N-(difluoromethyl) methanesulfonamide] showed an IC50 of 50 µM.

Compound `COc1cc(C(=O)N2CCCC3(CCN3)C2)cc2nc(-c3cc4ccc(N(C(F)F)S(C)(=O)=O)nc4n3CC3CC3)n(C)c12` (stereo not drawn) [Example 75, N-(1-(cyclopropylmethyl)-2-(7-methoxy-1-methyl-5-(1,6-diazaspiro[3.5]nonane-6-carbonyl)-1H-benzo[d]imidazol-2-yl)-1H-pyrrolo[2,3-b]pyridin-6-yl)-N-(difluoromethyl) methanesulfonamide] has an IC50 of 50 µM.

`COc1cc(C(=O)N2CC3(CCCCN3)C2)cc2nc(-c3cc4ccc(N(C(F)F)S(C)(=O)=O)nc4n3CC3CC3)n(C)c12` [Example 76, N-(1-(cyclopropylmethyl)-2-(7-methoxy-1-methyl-5-(2,5-diazaspiro[3.5]nonane-2-carbonyl)-1H-benzo[d]imidazol-2-yl)-1H-pyrrolo[2,3-b]pyridin-6-yl)-N-(difluoromethyl) methanesulfonamide] was tested, and the IC50 was 50 µM.

With `COc1cc(C(=O)N2CC3(CCCN3)C2)cc2nc(-c3cc4ccc(N(C(F)F)S(C)(=O)=O)nc4n3CC3CC3)n(C)c12` [Example 77, N-(1-(cyclopropylmethyl)-2-(7-methoxy-1-methyl-5-(2,5-diazaspiro[3.4]octane-2-carbonyl)-1H-benzo[d]imidazol-2-yl)-1H-pyrrolo[2,3-b]pyridin-6-yl)-N-(difluoromethyl) methanesulfonamide] the IC50 was 50 µM.
